In article PMC4638293 (The Journal of Veterinary Medical Science, 2015):
Marks after values point to notes of the source that are not given here.

Type: in vivo
Settings: rat, PY 4 mg/kg oral; for Total amount in feces: 24 hr feces collection; for Total amount in brain (tissue weight): whole brain; for Total amount in cecum (tissue weight): whole cecum; for Total amount in colon (tissue weight): whole colon; for Total amount in duodenum (tissue weight): whole duodenum; for Total amount in heart (tissue weight): whole heart; for Total amount in ileum (tissue weight): whole ileum; for Total amount in jejunum (tissue weight): whole jejunum; for Total amount in kidney (tissue weight): whole kidney; for Total amount in liver (tissue weight): whole liver; for Total amount in lung (tissue weight): whole lung; for Total amount in spleen (tissue weight): whole spleen; for Total amount in stomach (tissue weight): whole stomach; for Total amount in testes (tissue weight): whole testes; for Total amount in tongue (tissue weight): whole tongue
[1] = 24 hr urine collection, mean ± SD, unit ppb printed
[2] = 24 hr, wet-g, mean ± SD, unit ppb printed
[3] = 24 hr, mean ± SD, unit ppb printed

| Structure (SMILES) | Total amount in feces (mean ± SD) | Concentration in urine [1] | Total amount in brain (tissue weight) (24 hr, mean ± SD) | Total amount in cecum (tissue weight) (24 hr, mean ± SD) | Total amount in colon (tissue weight) (24 hr, mean ± SD) | Total amount in duodenum (tissue weight) (24 hr, mean ± SD) | Total amount in heart (tissue weight) (24 hr, mean ± SD) | Total amount in ileum (tissue weight) (24 hr, mean ± SD) | Total amount in jejunum (tissue weight) (24 hr, mean ± SD) | Total amount in kidney (tissue weight) (24 hr, mean ± SD) | Total amount in liver (tissue weight) (24 hr, mean ± SD) | Total amount in lung (tissue weight) (24 hr, mean ± SD) | Total amount in spleen (tissue weight) (24 hr, mean ± SD) | Total amount in stomach (tissue weight) (24 hr, mean ± SD) | Total amount in testes (tissue weight) (24 hr, mean ± SD) | Total amount in tongue (tissue weight) (24 hr, mean ± SD) | Concentration in cecum [2] | Concentration in colon [2] | Concentration in heart [2] | Concentration in ileum [2] | also measured |
| --- | --- | --- | --- | --- | --- | --- | --- | --- | --- | --- | --- | --- | --- | --- | --- | --- | --- | --- | --- | --- | --- |
| c1cc2ccc3cccc4ccc(c1)c2c34 [PY, Pyrene] | (380.9 ± 31.2) ng | 4.3 ± 0.0^d,e ppb | (17.5 ± 1.5) ng | (33.0 ± 4.8) ng | (32.0 ± 7.7) ng | (19.4 ± 5.3) ng | (12.7 ± 1.5) ng | (22.0 ± 1.7) ng | (34.5 ± 14.8) ng | (12.1 ± 2.0) ng | (124.5 ± 20.4) ng | (10.7 ± 0.2) ng | (12.4 ± 0.8) ng | (22.4 ± 4.1) ng | (13.3 ± 3.7) ng | (11.4 ± 0.4) ng |  |  |  |  | Total amount in urine (24 hr urine collection, mean ± SD): (40.7 ± 9.6) ng |
| O=C(O)[C@H]1O[C@@H](Oc2ccc3ccc4cccc5ccc2c3c45)[C@H](O)[C@@H](O)[C@@H]1O [PYOG, Pyrene-1-glucuronide] |  | 10.1 × 10^3 ± 400^c,d ppb | (310 ± 100) ng | (950 ± 70) ng | (1.0 × 10^3 ± 200) ng |  | (860 ± 140) ng | (58 × 10^3 ± 300) ng |  | (18 × 10^3 ± 880) ng | (70 × 10^3 ± 220) ng | (1.7 × 10^3 ± 640) ng | (380 ± 120) ng | (1.7 × 10^3 ± 100) ng | (1.1 × 10^3 ± 390) ng | (420 ± 110) ng | 1.4 × 10^3 ± 100^d ppb | 1.2 × 10^3 ± 300^d ppb | 1.1 × 10^3 ± 200^d ppb | 170.1 × 10^3 ± 700^a ppb | Share of PY excreted via urine as PYOG (24 hr urine): around 10%; Concentration in brain (24 hr, brain, wet-g, mean ± SD, unit ppb printed): 210 ± 60^d ppb; Concentration in duodenum (24 hr, duodenum, wet-g, mean ± SD, unit ppb printed): 65.9 × 10^3 ± 800^b,c ppb; Concentration in jejunum [2]: 87.1 × 10^3 ± 400^b ppb; Concentration in kidney [2]: 20.6 × 10^3 ± 100^c,d ppb; Concentration in liver [2]: 10.2 × 10^3 ± 300^c,d ppb; Concentration in lung [2]: 2.4 × 10^3 ± 900^c,d ppb; Concentration in plasma [3]: 446.0 ± 30^d ppb; Concentration in spleen (24 hr, spleen, wet-g, mean ± SD, unit ppb printed): 790 ± 20^d ppb; Concentration in stomach [2]: 1.7 × 10^3 ± 10^d ppb; Concentration in testes [2]: 1.0 × 10^3 ± 360^d ppb; Concentration in tongue (24 hr, tongue, wet-g, mean ± SD, unit ppb printed): 1.4 × 10^3 ± 500^d ppb |
| Oc1ccc2ccc3cccc4ccc1c2c34 [PYOH, 1-hydroxypyrene] | (755.8 × 10^3 ± 700) ng | 546 ± 78^b ppb |  | (40.1 × 10^3 ± 100) ng | (11.4 × 10^3 ± 700) ng | (441 ± 29) ng |  | (4.1 × 10^3 ± 400) ng | (1.6 × 10^3 ± 200) ng | (135 ± 19) ng | (8.5 × 10^3 ± 100) ng |  |  | (871 ± 64) ng | (92 ± 37) ng |  | 59.4 × 10^3 ± 800^a,b ppb | 13 × 10^3 ± 800^b ppb |  |  | Share of PY excreted via feces as PYOH (24 hr feces): ~70% |
| O=S(=O)(O)Oc1ccc2ccc3cccc4ccc1c2c34 [PYOS, Pyrene-1-sulfate] |  | 13 ± 7^b ppb |  | (57 ± 35) ng | (47 ± 16) ng |  | (9 ± 3) ng | (96 ± 10) ng | (48 ± 21) ng | (67 ± 33) ng | (650 ± 260) ng | (29 ± 9) ng |  | (11 ± 1) ng | (12 ± 3) ng |  | 89 ± 58^a,b ppb | 54 ± 20^b ppb | 12 ± 4^b ppb | 261 ± 21^a ppb | Concentration in jejunum [2]: 39 ± 17^b ppb; Concentration in kidney [2]: 76 ± 38^a,b ppb; Concentration in liver [2]: 96 ± 38^a,b ppb; Concentration in lung [2]: 38 ± 13^b ppb; Concentration in plasma [3]: 2 ± 1^b ppb; Concentration in stomach [2]: 11 ± 1^b ppb; Concentration in testes [2]: 11 ± 3^b ppb |
